The nature of the data set: Solubility study. It is filed as physicochemical.
Setting [1] is: water, read-out: Solubility Water.

In brackets after ≈: the same amount, converted by molar mass. Where two headings read alike, the source gives them in different places. Where no end group is shown, it is not given here.

For the compound `CC(C)C[C@H](NC(=O)[C@H](CCC(N)=O)NC(=O)[C@H](Cc1ccc(O)cc1)NC(=O)[C@H](CCC(N)=O)NC(=O)[C@H](Cc1ccccc1)NC(=O)[C@H](CC(=O)O)NC(=O)[C@H](CC(C)C)NC(=O)[C@H](Cc1ccc(O)cc1)NC(=O)[C@H](CO)NC(=O)[C@H](CC(C)C)NC(=O)[C@H](CCCCN)NC(=O)[C@H](CCC(N)=O)NC(=O)[C@H](Cc1ccc(O)cc1)NC(=O)[C@@H](N)CCCCN)C(=O)N[C@@H](CC(=O)O)C(=O)O` [G7K-1], the solubility (PBS, read-out: Solubility PBS) is 60 µg/mL (≈ 30.7 µM) and the solubility under setting [1] came out at 380 µg/mL (≈ 195 µM). Besides, for the setting “water”, the “solubility in water” value is recorded as “improved water solubility”.
With `CC(C)C[C@H](NC(=O)[C@H](CCC(N)=O)NC(=O)[C@H](Cc1ccc(O)cc1)NC(=O)[C@H](CCC(N)=O)NC(=O)[C@H](Cc1ccccc1)NC(=O)[C@H](CC(=O)O)NC(=O)[C@H](CC(C)C)NC(=O)[C@H](Cc1ccc(O)cc1)NC(=O)[C@H](CO)NC(=O)[C@H](CC(C)C)NC(=O)[C@H](CCCCN)NC(=O)[C@H](CCC(N)=O)NC(=O)[C@@H](N)Cc1ccc(O)cc1)C(=O)N[C@@H](CC(=O)O)C(=O)O` [G7], the solubility (PBS, read-out: Solubility PBS) worked out at 120 µg/mL (≈ 65.8 µM). Moreover, the “solubility in aqueous buffers” value (aqueous buffers such as PBS) is “weakly soluble”. In addition, the “solubility in water” value (water) is given as “water insoluble”.
With YKKLSYLDFQYQLD [G7K2], the solubility reads like this: (PBS, read-out: Solubility PBS) 240 µg/mL; under setting [1], 780 µg/mL. Further, the “solubility in water” value (water) is listed as “highest solubility”.
For the compound YQKLSYLDFQKQLD [G7K11], the solubility reads like this: (PBS, read-out: Solubility PBS) 30 µg/mL; under setting [1], 130 µg/mL.
Regarding YQKLSYLDFQYQKD [G7K13], the solubility is 80 µg/mL (PBS, read-out: Solubility PBS) and 360 µg/mL under setting [1]. Moreover, the “solubility in water” value (water) is on record as “improved water solubility”.
With YQKLSYLDFQYQKDK [G7K15], the solubility reads like this: (PBS, read-out: Solubility PBS) 80 µg/mL; under setting [1], 180 µg/mL.

Broadly, the solubility is the dissolved amount per volume that the medium holds.

(Values after patent publication US12582695B2, “Compositions and methods for treating glioma” (Instytut Biologii Doświadczalnej im. Marcelego Nenckiego …, priority 2018, dated 2026).)
